Consider 74 molecules from PubChem BioAssay AID1996.

Molecules are shown by their SMILES. Values after ≈ are worked out from the molar mass of the structure shown.

The conditions of the data set: buffer; pH 7.4; 200.0 µM.
As to `CCOC(=O)C1CCN(c2ncnc3c2cnn3C)CC1`, the solubility (kinetic) (commonly the concentration staying in solution when a stock, usually in DMSO, is diluted into the medium) is over 43.4 µg/mL.
Consider `COc1cc(OC)cc(C(=O)NN2CCOCC2)c1`, for which the kinetic solubility was over 39.9 µg/mL.
In turn, `Cc1cccc(NC(=O)Cn2nc(-c3ccco3)ccc2=O)c1C` gave a kinetic solubility of over 48.5 µg/mL.
With `CC(C)C(NS(=O)(=O)c1cccc(C(F)(F)F)c1)C(=O)O` (centres undefined), the solubility (kinetic) is over 48.8 µg/mL.
Take `CCc1ccc(NS(=O)(=O)c2ccc3[nH]c(=O)[nH]c3c2)cc1`: the solubility (kinetic) came out at 5.5 µg/mL (≈ 17.3 µM).
The value for `NC(=O)CSc1nc(C2CC2)nc2sc3c(c12)CCCC3` was under 0.2 µg/mL; that for `COc1ccc(S(=O)(=O)N2CCCC2)cc1C(=O)O` was over 42.8 µg/mL; that for `Cc1cc(C)c(OCC(=O)Nc2cc(C(=O)O)cc(C(=O)O)c2)cc1C` was over 53.6 µg/mL.
The value for `COCCCNC(=O)[C@H]1N2C(=O)c3ccccc3C2SC1(C)C` (some centres undefined) was 45.4 µg/mL (≈ 136 µM); that for `CC(=O)Oc1ccc(C(=O)Nc2cccc(C(=O)NC(C)(C)C)c2)cc1` was 45 µg/mL (≈ 127 µM); that for `CS(=O)(=O)N1CCC(C(=O)Nc2cccc(F)c2)CC1` was over 45.1 µg/mL.
`CN(CC(=O)NC1CC1)S(=O)(=O)c1cc(Cl)ccc1Cl` yielded a solubility (kinetic) of over 50.6 µg/mL.
On to `Cc1cc(C)c(C#N)c(OCC(=O)Nc2ccccc2)n1`, for which the solubility (kinetic) is 31.7 µg/mL (≈ 113 µM).
With `Cl.OC1(c2ccccc2)CCN(Cc2ccccc2)CC1`, the kinetic solubility was 37.6 µg/mL.
The value for `CC(=O)NS(=O)(=O)c1ccc(NC(=S)Nc2ccccc2)cc1` was over 52.4 µg/mL; that for `C(CNC1C2CC3CC(C2)CC1C3)CN1CCOCC1.Cl` (centres undefined) was over 52.7 µg/mL.
The molecule `O=C(N[C@@H](Cc1c[nH]c2ccccc12)C(=O)O)c1ccc(Cl)cc1` returned a kinetic solubility of over 51.4 µg/mL.
The value for `CCOP(=O)(CN(CC)C(=O)c1ccccc1Br)OCC` was over 56.7 µg/mL; that for `OC(CN1CCN(c2cccc(Cl)c2)CC1)c1ccc(F)cc1` (centres undefined) was 12.2 µg/mL (≈ 36.4 µM); that for `COc1ccc(S(=O)(=O)N2CCOCC2)cc1NC(=O)COC(=O)Cc1ccccc1` was 51.7 µg/mL (≈ 115 µM).
In turn, `CC(C)CNC(=O)CCc1nc(-c2ccccc2)no1` had a kinetic solubility of 37.7 µg/mL (≈ 138 µM).
In turn, `COc1ccc(NC(=O)CS(=O)(=O)c2ccc(F)cc2)cc1` registered a solubility (kinetic) of 46.9 µg/mL (≈ 145 µM). The solubility kinetic values of the last two molecules are within 1.5-fold of each other.
The molecule `CC(=O)Nc1ccc(S(=O)(=O)NC(C)c2ccncc2)cc1` (centres undefined) had a solubility (kinetic) of over 47.9 µg/mL.
`O=S(=O)(Nc1c(F)cccc1F)c1ccc2c(c1)OCCO2` displayed a kinetic solubility of 2.5 µg/mL (≈ 7.64 µM).
The value for `COCC(C)NC(=O)c1ccc2nc(-c3ccccc3)c(-c3ccccc3)nc2c1` (centres undefined) was 5.3 µg/mL (≈ 13.3 µM).
`O=C(CCc1ccccc1)NCc1ccncc1` registered a kinetic solubility of over 36 µg/mL.
As to `COc1cc(OC)c(NC(=O)Cc2cccs2)cc1Cl`, the kinetic solubility stood at 32.1 µg/mL (≈ 103 µM).
In the case of `COc1ccc(NC(=O)c2cc3ccccc3o2)cc1OC`, the kinetic solubility was determined as 7.9 µg/mL (≈ 26.6 µM).
`CO/N=C(\CCC(=O)O)c1cccs1` had a solubility (kinetic) of over 32 µg/mL.
Molecule `CCCN(CC1CC1)C(=O)CSc1ncnc2sccc12` showed a kinetic solubility of over 48.2 µg/mL.
`COC(=O)c1ccc(C(=O)N=c2sccn2C)cc1` returned a solubility (kinetic) of 13.9 µg/mL (≈ 50.3 µM).
As to `COCCn1c(N)c(Sc2ccc(Cl)cc2)c(=O)[nH]c1=O`, the kinetic solubility was 47.4 µg/mL (≈ 145 µM). Against the preceding molecule, the solubility kinetic is about 3.4-fold higher.
For the molecule `COc1ccccc1CNC(=O)CN1C(=O)NC2(CCC(C)CC2)C1=O` (centres undefined), the solubility (kinetic) is over 53.9 µg/mL.
Under `CCN(Cc1ccccc1)C(=O)c1cc2c(OC)c(OC)c(OC)cc2[nH]1` stands 31.8 µg/mL (≈ 86.3 µM); under `CCCN1CCC(NC(=O)Cc2ccccc2C)CC1`, 33.4 µg/mL (≈ 122 µM); under `COC(=O)CSc1nc(NC(C)(C)C)nc(N(C)C)n1`, 38.7 µg/mL (≈ 129 µM).
`Cc1cc(C)nc(NC(=O)NC(=O)c2ccccc2)n1` yielded a kinetic solubility of over 40.5 µg/mL.
The value for `CCOc1ccc(-c2nc(N)ncc2Oc2ccc(OC)cc2)c(O)c1` was 1 µg/mL (≈ 2.83 µM).
`O=C(OCc1ccc(F)cc1)c1cccnc1Cl` showed a solubility (kinetic) of 21.7 µg/mL (≈ 81.7 µM).
`COc1ccc(/C=C/C(=O)N2CCN(c3ccccn3)CC2)cc1OC` showed a solubility (kinetic) of over 53 µg/mL.
For `COc1cccc(C(=O)N(C)Cc2c(C)nn(C3CCS(=O)(=O)C3)c2C)c1` (centres undefined), the kinetic solubility is over 58.7 µg/mL.
For the molecule `O=C(CNC(=O)c1ccc2c(c1)OCO2)NCc1cccs1`, the kinetic solubility was determined as 34.8 µg/mL (≈ 109 µM).
Under `COCCN(Cc1ccccc1)C(=O)C1CCN(C(=O)Nc2ccccc2)CC1` stands over 59.3 µg/mL; under `O=C(Nc1nccs1)c1ccc(-c2ccccc2[N+](=O)[O-])o1`, 5.6 µg/mL (≈ 17.8 µM).
As for `Cc1ccc2c(c1)N(CC(=O)N1CCCCC1C)C(=O)CO2` (centres undefined), the solubility (kinetic) is over 45.4 µg/mL.
In turn, `COC(=O)c1ccc2nc(-c3ccc(S(C)(=O)=O)cc3)cn2c1` showed a kinetic solubility of 2 µg/mL (≈ 6.05 µM).
In turn, `N#Cc1ccccc1COC(=O)c1ccc(Br)o1` displayed a solubility (kinetic) of 28.4 µg/mL (≈ 92.8 µM).
`COC(=O)COc1ccc(NC(=O)c2ccco2)cc1` showed a kinetic solubility of 39.1 µg/mL (≈ 142 µM).
In turn, `CCOc1ccc(NC(=O)N2CC(C)OC(C)C2)cc1` (centres undefined) returned a solubility (kinetic) of over 41.8 µg/mL.
As to `CCN(C(=O)COC(=O)c1ccc2c(c1)OCO2)c1ccccc1`, the solubility (kinetic) was over 49.1 µg/mL.
Take `CC(CN1CCOCC1)OC(=O)c1ccc(C(C)(C)C)cc1.Cl` (centres undefined): the kinetic solubility amounted to 18.2 µg/mL.
With `CC1CCCC(NC(=O)COC(=O)c2ccc(Br)o2)C1C` (centres undefined), the solubility (kinetic) worked out at 8.2 µg/mL (≈ 22.9 µM).
As for `CC1CCCN(c2cc(N(C)CCO)c([N+](=O)[O-])c3nonc23)C1` (centres undefined), the kinetic solubility was over 50.3 µg/mL.
`O=C(NC1CCSc2ccccc21)c1ccc(C(F)(F)F)cc1` (centres undefined) returned a solubility (kinetic) of under 0.7 µg/mL.
`Cc1ccc(C)c(S(=O)(=O)N2CCN(C(=O)c3cccnc3)CC2)c1` came in with a kinetic solubility of 50.8 µg/mL (≈ 141 µM).
The molecule `Cc1cc(C)cc(Nc2ccc(C(=O)O)cc2[N+](=O)[O-])c1` gave a kinetic solubility of over 42.9 µg/mL.
As to `CCOC(=O)C1=C(C)Nc2ccccc2N=C1N`, the solubility (kinetic) is over 36.8 µg/mL.
As to `COC(=O)c1ccc(/C=C(\C#N)c2ccccn2)cc1`, the kinetic solubility was 1.8 µg/mL (≈ 6.81 µM).
Consider `Cl.O=C(CSC1=NCCN1)Nc1cccc([N+](=O)[O-])c1`, for which the kinetic solubility was over 47.5 µg/mL.
In turn, `CCOC(=O)c1c(C)[nH]c(C(=O)NCCN2CCOCC2)c1C` came in with a kinetic solubility of over 48.5 µg/mL.
As for `Br.COC(=O)c1ccc(CN2CCSC2=N)cc1`, the kinetic solubility is 49.6 µg/mL.
Under `CCOc1ccccc1NC(=O)Nc1ccc2c(c1)CCC2` stands under 0.3 µg/mL; under `O=C(Nc1ccc(Cl)cn1)C1CC1`, over 29.5 µg/mL.
`O=C(OCc1ccc([N+](=O)[O-])cc1)C1CC(=O)N(Cc2ccccc2)C1` (centres undefined) had a solubility (kinetic) of over 53.2 µg/mL.
Take `Cc1cccc(C(=O)N=c2sccn2C)c1[N+](=O)[O-]`: the kinetic solubility turned out to be 17.3 µg/mL (≈ 62.4 µM).
The value for `O=C1C=C(NC2CCCC2)CC(c2ccccc2)C1` (centres undefined) was over 38.3 µg/mL.
As to `CN1CCN(c2ccccc2NC(=O)c2cccs2)CC1`, the kinetic solubility is over 45.2 µg/mL.
As for `O=C(Nc1ccccc1O)c1ccc([N+](=O)[O-])cc1`, the solubility (kinetic) was 24.1 µg/mL (≈ 93.3 µM).
As to `CCOC(=O)C1CCCN(c2c(NCCc3ccccc3)c(=O)c2=O)C1` (centres undefined), the solubility (kinetic) was 25.5 µg/mL (≈ 71.5 µM).
The value for `O/N=C/c1ccnc(SCc2ccc(Cl)cc2)n1` was 1.2 µg/mL (≈ 4.29 µM); that for `O=C(Nc1cccc(S(=O)(=O)NC2=NCCC2)c1)c1ccccc1` was over 51.5 µg/mL.
In the case of `O=C(c1ccccc1F)N1C(=O)c2cccc3cccc1c23`, the kinetic solubility is under 0.6 µg/mL.
Turning to `COc1ccc(C=O)cc1Oc1nc(Cl)ncc1F`, the kinetic solubility is 32 µg/mL (≈ 113 µM).
Consider `O=C(Cc1cccc2ccccc12)NCCc1ccccc1`, for which the solubility (kinetic) worked out at 7.1 µg/mL (≈ 24.5 µM).
